Data set [1] relates to Mus musculus. The data set can be described thus: %fT>MIC in mouse at 35.6 mg/kg administered every 6 hrs. In kind it is ADME, organism-based. Also noted: dose 35.6 mg/kg. As to conditions: in vivo.
Data set [2] relates to Pseudomonas aeruginosa. Nature of the data set: Antibacterial activity against Pseudomonas aeruginosa ATCC 27853 by microdilution method. In kind it is functional, organism-based.
Data set [3] has as its system Mus musculus. The data set can be described thus: %fT>MIC in mouse at 4.60 mg/kg administered every 3 hrs. Set-up: dose 4.6 mg/kg. The conditions noted are these: in vivo, 4.6 mg/kg. In kind it is ADME, organism-based.
Data set [4] relates to Pseudomonas aeruginosa. The data set can be described thus: Antibacterial activity against Pseudomonas aeruginosa ATCC 27853 assessed as bacterial growth rate by time-kill study. The class given is functional.
Data set [5] concerns Homo sapiens. The data set can be described thus: %fT>MIC in human at 38.9 mg/kg administered every 6 hrs. The class given is ADME, organism-based. The conditions noted are these: in vivo. Set-up: dose 38.9 mg/kg.
The nature of data set [6]: Volume of distribution in mouse. As to conditions: in vivo, read-out: Vc. In kind it is ADME, organism-based.
Data set [7] in a line: Volume of distribution in human. The class given is ADME, organism-based. As to conditions: in vivo, read-out: Vc.
Data set [8] has as its system Mus musculus. The data set can be described thus: %fT>MIC in mouse at 2.12 mg/kg administered every 2 hrs. The class given is ADME, organism-based. Set-up: dose 2.12 mg/kg. As to conditions: in vivo.
Data set [9] has as its system Homo sapiens. Nature of the data set: %fT>MIC in human at 121 mg/kg administered every 12 hrs. As to conditions: in vivo. Set-up: dose 121 mg/kg. In kind it is ADME, organism-based.
In data set [10] the test system is Homo sapiens. The data set can be described thus: %fT>MIC in human at 59.8 mg/kg administered every 8 hrs. The class given is ADME, organism-based. Set-up: dose 59.8 mg/kg. As to conditions: in vivo.
The subject of data set [11] is Homo sapiens. Nature of the data set: %fT>MIC in human at 20.2 mg/kg administered every 4 hrs. In kind it is ADME, organism-based. Also noted: dose 20.2 mg/kg. As to conditions: in vivo.
Data set [12] deals with Pseudomonas aeruginosa. The data set can be described thus: Antibacterial activity against Pseudomonas aeruginosa ATCC 27853 assessed as maximum bacterial kill rate by time-kill study. In kind it is functional.
Data set [13] in a line: Elimination rate constant in human. The class given is ADME, organism-based. As to conditions: in vivo.
A short description of data set [14]: Elimination rate constant in mouse. In kind it is ADME, organism-based. The conditions noted are these: in vivo.
The subject of data set [15] is Mus musculus. Nature of the data set: %fT>MIC in mouse at 9.29 mg/kg administered every 4 hrs. The class given is ADME, organism-based. Set-up: dose 9.29 mg/kg. As to conditions: in vivo.
Data set [16] has as its system Mus musculus. The data set can be described thus: %fT>MIC in mouse at 129.7 mg/kg administered every 8 hrs. Set-up: dose 129.7 mg/kg. The conditions noted are these: in vivo. The class given is ADME, organism-based.

Values after ≈ are worked out from the molar mass of the structure shown.

For `CC(C)(O/N=C(\C(=O)N[C@@H]1C(=O)N2C(C(=O)[O-])=C(C[n+]3ccccc3)CS[C@H]12)c1csc(N)n1)C(=O)O` [CEFTAZIDIME], the “fT>MIC” value in the data set with Mus musculus [1] stood at 36.5%; in the data set on Mus musculus [3], 38.1%; in the data set on Homo sapiens [5], 36.3%; with Mus musculus [8], 37.3%; in the data set with Homo sapiens [9], 37.7%; in the data set with Homo sapiens [10] it was 37.9%. For the same compound, the “fT>MIC” value stood at 23.7% in the data set on Homo sapiens [11], 37.6% with Mus musculus [15] and 35.7% with Mus musculus [16]. For the same compound, in the data set with Pseudomonas aeruginosa [2], the EC50 amounted to 1.22 µg/mL (≈ 2.23 µM). Moreover, the Activity is -1.41 h⁻¹ in the data set on Pseudomonas aeruginosa [4] and 4.15 h⁻¹ in the data set with Pseudomonas aeruginosa [12]. Besides, the values for the Vd in [6] and in [7] were 0.5 L/kg and 1.4 L, respectively. For the same compound, the k el is 0.000128 s⁻¹ in data set [13] and 0.000544 s⁻¹ in data set [14].

Source of the values: ChEMBL document CHEMBL1143411, “Concentration-effect relationship of ceftazidime explains why the time above the MIC is 40 percent for a static effect in vivo” (Antimicrob Agents Chemother, 2007).
